In patent US20260132132A1, “3A,4,5,6-TETRAHYDRO-1 H-PYRAZOLO[3,4-C]PYRIDIN-7(7AH)-ONE DERIVATIVES AS FACTOR XIIA INHIBITORS” (KALVISTA PHARMACEUTICALS LIMITED, priority 2022, published 2026):

Assays:
[1] = molecular target: T1, Human Factor XIIa (hFXIIa) (Homo sapiens, UniProt P00748); test: Determination of Human Factor XIIa (hFXIIa) inhibition, fluorogenic substrate IC50 assay; assay type: biochemical; conditions: fluorogenic substrate H-DPro-Phe-Arg-AFC at Km, 25° C., read-out: Human FXIIa IC50
T1 construct: purchased Enzyme Research Laboratories
T1 sequence (P00748 373-615 limits assumed): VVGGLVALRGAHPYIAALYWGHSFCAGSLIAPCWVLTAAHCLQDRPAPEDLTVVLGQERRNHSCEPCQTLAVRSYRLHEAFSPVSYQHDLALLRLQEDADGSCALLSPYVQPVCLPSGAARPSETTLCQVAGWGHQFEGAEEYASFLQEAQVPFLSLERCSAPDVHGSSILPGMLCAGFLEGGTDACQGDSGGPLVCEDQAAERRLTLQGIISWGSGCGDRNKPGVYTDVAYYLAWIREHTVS
T1 sequence (P00748 20-372 partner limits assumed): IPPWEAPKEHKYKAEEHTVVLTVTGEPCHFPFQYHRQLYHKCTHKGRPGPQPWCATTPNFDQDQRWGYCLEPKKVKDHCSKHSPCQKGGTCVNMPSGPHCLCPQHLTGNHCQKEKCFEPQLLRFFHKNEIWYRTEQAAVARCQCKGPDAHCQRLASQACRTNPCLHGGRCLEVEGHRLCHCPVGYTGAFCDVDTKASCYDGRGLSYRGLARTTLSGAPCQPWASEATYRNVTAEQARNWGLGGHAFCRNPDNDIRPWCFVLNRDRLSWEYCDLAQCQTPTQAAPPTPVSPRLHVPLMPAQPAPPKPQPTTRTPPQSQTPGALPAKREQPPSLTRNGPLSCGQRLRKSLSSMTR
Protocol: Determination of Human Factor XIIa (hFXIIa) inhibition
The Km for the cleavage of the substrate by hFXIIa was determined by standard transformation of the Michaelis-Menten equation, with subsequent inhibition assays performed at substrate Km concentration.

FXa = FXa (Homo sapiens, UniProt P00742); test: Related protease inhibition: FXa, fluorogenic substrate; assay type: biochemical; conditions: fluorogenic substrate at Km, 25° C.; H1-H3 = % activity at 40 μM
FXa, sequence (P00742 235-488 limits assumed): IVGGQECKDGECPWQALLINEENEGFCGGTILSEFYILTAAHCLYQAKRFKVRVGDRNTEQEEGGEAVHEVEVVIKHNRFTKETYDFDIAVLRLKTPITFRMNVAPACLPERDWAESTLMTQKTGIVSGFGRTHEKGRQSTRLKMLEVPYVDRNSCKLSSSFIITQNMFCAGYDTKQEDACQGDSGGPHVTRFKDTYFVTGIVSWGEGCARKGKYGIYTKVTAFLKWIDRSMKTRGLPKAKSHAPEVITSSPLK
FXa, sequence (P00742 41-179 partner limits assumed): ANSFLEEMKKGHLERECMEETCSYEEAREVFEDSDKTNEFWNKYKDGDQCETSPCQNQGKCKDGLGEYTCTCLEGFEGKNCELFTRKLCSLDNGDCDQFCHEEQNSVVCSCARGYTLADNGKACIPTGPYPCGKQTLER
Protocol: Human serine protease enzyme Plasma Kallikrein, KLK1, FXa, Plasmin, Thrombin and Trypsin were assayed for enzymatic activity using an appropriate fluorogenic substrate at Km concentration, FXIa at fixed substrate concentration of 100 μM and various concentrations of the test compound.

Compound | IC50 [1] | IC50 (FXa)
Cc1ccncc1COCc1nn(-c2cccc(Cl)c2)c2c1CCN(c1ccc3c(c1)C(=O)N(C)CC3)C2=O [Example 1356, 7-(1-(3-chlorophenyl)-3-(((4-methylpyridin-3-yl)methoxy)methyl)-7-oxo-1,4,5,7-tetrahydro-6H-pyrazolo[3,4-c]pyridin-6-yl)-2-methyl-3,4-dihydroisoquinolin-1(2H)-one] | 1000 to 3000 nM | 3000 to 10000 nM
O=C(NCc1ccco1)c1nn(-c2cccc(Cl)c2)c2c1CCN(c1ccc3c(c1)CN(CCO)CC3)C2=O [Example 1109, 1-(3-chlorophenyl)-N-(furan-2-ylmethyl)-6-(2-(2-hydroxyethyl)-1,2,3,4-tetrahydroisoquinolin-7-yl)-7-oxo-4,5,6,7-tetrahydro-1H-pyrazolo[3,4-c]pyridine-3-carboxamide] | 10 to 100 nM | > 40000 nM
Cc1cc(CNC(=O)c2nn(-c3cccc(Cl)c3)c3c2CCN(c2ccc4c(c2)C(=O)N(C(C)C)CCO4)C3=O)nn1C [Example 1320, 1-(3-chlorophenyl)-N-((1,5-dimethyl-1H-pyrazol-3-yl)methyl)-6-(4-isopropyl-5-oxo-2,3,4,5-tetrahydrobenzo[f][1,4]oxazepin-7-yl)-7-oxo-4,5,6,7-tetrahydro-1H-pyrazolo[3,4-c]pyridine-3-carboxamide] | 100 to 300 nM | > 40000 nM
CC(=O)N1CCc2ccc(N3CCc4c(C(=O)NCc5cnccc5C)nn(-c5cccc(Cl)c5)c4C3=O)cc21 [Example 1188, 6-(1-acetylindolin-6-yl)-1-(3-chlorophenyl)-N-((4-methylpyridin-3-yl)methyl)-7-oxo-4,5,6,7-tetrahydro-1H-pyrazolo[3,4-c]pyridine-3-carboxamide] | 100 to 300 nM | > 40000 nM
Cc1ccncc1CNC(=O)c1nn(-c2cccc(Cl)c2)c2c1CCN(c1ccc3c(c1)C(=O)N(C)CC3)C2=O [Example 1159, 1-(3-Chlorophenyl)-6-(2-methyl-1-oxo-1,2,3,4-tetrahydroisoquinolin-7-yl)-N-((4-methylpyridin-3-yl)methyl)-7-oxo-4,5,6,7-tetrahydro-1H-pyrazolo[3,4-c]pyridine-3-carboxamide] | 10 to 100 nM | > 40000 nM
CN1CCc2ccc(N3CCc4c(C(=O)NC5COCC5O)nn(-c5cccc(Cl)c5)c4C3=O)cc2C1=O (stereo not drawn) [Example 1179, 1-(3-chlorophenyl)-N-(4-hydroxytetrahydrofuran-3-yl)-6-(2-methyl-1-oxo-1,2,3,4-tetrahydroisoquinolin-7-yl)-7-oxo-4,5,6,7-tetrahydro-1H-pyrazolo[3,4-c]pyridine-3-carboxamide] | 300 to 1000 nM | > 40000 nM
CN1CCc2ccc(N3CCc4c(C5=NCCO5)nn(-c5cccc(Cl)c5)c4C3=O)cc2C1=O [Example 1353, 7-(1-(3-Chlorophenyl)-3-(4,5-dihydrooxazol-2-yl)-7-oxo-1,4,5,7-tetrahydro-6H-pyrazolo[3,4-c]pyridin-6-yl)-2-methyl-3,4-dihydroisoquinolin-1 (2H)-one] | 300 to 1000 nM | 3000 to 10000 nM
CC(C)N1CCc2ccc(N3CCc4c(C(=O)NCc5ccccc5)nn(-c5cccc(Cl)c5)c4C3=O)cc2C1 [Example 1022, N-benzyl-1-(3-chlorophenyl)-6-(2-isopropyl-1,2,3,4-tetrahydroisoquinolin-7-yl)-7-oxo-4,5,6,7-tetrahydro-1H-pyrazolo[3,4-c]pyridine-3-carboxamide] | 10 to 100 nM | 3000 to 10000 nM
CN1CCc2ccc(N3CCc4c(C(=O)NC(CO)C5CCOC5)nn(-c5cccc(Cl)c5)c4C3=O)cc2C1=O (stereo not drawn) [Example 1180, 1-(3-chlorophenyl)-N-(2-hydroxy-1-(tetrahydrofuran-3-yl)ethyl)-6-(2-methyl-1-oxo-1,2,3,4-tetrahydroisoquinolin-7-yl)-7-oxo-4,5,6,7-tetrahydro-1H-pyrazolo[3,4-c]pyridine-3-carboxamide] | 300 to 1000 nM | > 40000 nM
